B1: Glychr19.trna2: top performing glycine ACE-tRNA UGA suppressor, SEQ ID NO: 53 (nucleic acid)
chain: GCGTTGGTGGTATAGTGGTTAGCATAGCTGCCTTCAAAGCAGTTGACCCGGGTTCGATTCCCGGCCAACGCA
modifications: chemistry not fully specified

Test system: native stop codons (TAA, TAG, TGA) of HEK293 transcripts
Assay: Ribosome footprint profiling of transcriptome-wide 3′UTRs
Format: cell-based, human
Conditions: for ribosome occupancy at each nucleotide in the 3′UTR downstream of stop codons: HEK293, log 2-fold change versus control; for readthrough of native stop codons / global translation termination: HEK293, summary in discussion
Description: The question was raised whether ACE-tRNAs that show efficacious suppression of premature stop codons may also induce global readthrough of native stop codons. To address this potential “off target” suppression, a transcriptome-wide quantitative profile of actively engaged ribosomes on all cellular transcripts was obtained by generating libraries of ribosome footprints from HEK293 cells expressing exogenous ACE-tRNAs or a control mock plasmid (puc57GG). Streptomycin was removed from the growth media to prevent readthrough artifacts. For comparison, the ribosome footprint library was also generated from cells in the presence or absence of G418 (150 μM, 48 hours). […] Only transcripts with a minimum threshold of 5 RPKM in the coding sequence and 0.5 RPKM in the 3′UTR in two replicate libraries were included for the quantitation comparison (254 transcripts in G418 and 495-748 transcripts in ACE-tRNAs). […] ACE-tRNAs examined here had no detectable change of 3′UTR ribosome density with the exception of ACE-tRNA Gln-UAA and Arg-UGA which induced approximately a 2-fold increase in 3′UTR ribosome density for the cognate stop codon complimentary to the ACE-tRNA anticodon. Understanding the biological significance of 2-fold readthrough of protein stops will require further study, but this effect is substantially lower compared to the 100- to 1000-fold suppression of PTC for the same ACE-tRNA.
Multiple in-frame stop codons are frequently found at the end of genes^37-39 and may cause a minor difference in overall 3′UTR ribosome density for ACE-tRNA and G418 treatment. Ribosome occupancy was examined at each nucleotide in the 3′UTR within a 60 nt region downstream of the stop codons. […] Reads were normalized per total million-mapped reads, compared against control cells, and reported as a log 2-fold change as in panel A. More than 5,200 transcripts were mapped to at least 1 footprint in the region of interest. […] Taken together, the ribosome profiling data argue that efficiency of native stop codon suppression by ACE-tRNAs is generally low, and markedly less than the level of PTC suppression.
Ribosome Footprint Profiling Library preparation. HEK293 cells transiently transfected with ACE-tRNAs and control plasmid (puc57GG) were grown in standard grown media in the absence of Pen-Strep for 48 h. Libraries were prepared as described^55, with a few modifications. Briefly, cells were rapidly cooled by addition of ice-cold PBS, lysed in lysis buffer (20 mM Tris-HCl/pH7.4, 150 mM NaCl, 5 mM MgCl2, 1 mM DTT, 1% (v/v) Triton X-100, and 25 U ml^−1 Turbo DNase I) for 10 min on ice, and triturated with ten times through a 26-G needle. After clearance by centrifugation at 16,000 g for 10 min at 4° C., the lysates were digested with 100 U RNase I (Ambion, USA) per A260 lysate at room temperature for 45 min with gentle agitation prior to adding 200 U RiboLock RNase Inhibitor (Thermo Scientific). Ribosome protected mRNA fragments were then isolated by loading lysates onto a 1M sucrose cushion prepared in modified polysome buffer (20 mM Tris-HCl/pH7.4, 150 mM NaCl, 8.5 mM MgCl2, 0.5 mM DTT, 20 U ml^−1 RiboLock RNase Inhibitor) and centrifugated at 70,000 rpm at 4° C. for 2 h using a Beckmen TLA-110 rotor. Ribosome pellets containing mRNA footprints were extracted using TRIzol and separated on a denaturing 12% polyacrylamide gel containing 8M urea. RNA fragments with sizes ranging from 26 to 34 nt were manually excised from the gel stained with SYBR Gold (Invitrogen) and isolated to generate the ribosome-protected fragment library. Contaminating rRNA fragments depleted using a Ribo-Zero kit (Illumina). 3′ Oligonucleotide adaptor ligation, reverse transcription, circularization, and secondary rRNA depletion using biotinylated rRNA depletion oligos (Table 9) were performed as described^55. Libraries were barcoded using indexing primers for each sample during PCR amplification. […]

Row | Molecule | ribosome occupancy at each nucleotide in the 3′UTR downstream of stop codons | readthrough of native stop codons / global translation termination
1 | Trpchr17.trna39: top performing tryptophan ACE-tRNA UGA suppressor, SEQ ID NO: 48 | no observable change of ribosome occupancy | no significant effect on global translation termination
2 | B1 | no observable change of ribosome occupancy | no significant effect on global translation termination

Source: patent US20230203482A1, “Methods of Rescuing Stop Codons via Genetic Reassignment with ACE-tRNA” (THE WISTAR INSTITUTE OF ANATOMY AND BIOLOGY, priority 2017, published 2023)
